In patent publication US20250333745A1, “METHODS AND COMPOSITIONS FOR TREATMENT OF POLYCYSTIC KIDNEY DISEASE” (Regulus Therapeutics Inc., priority 2016, published 2025):

What was measured:
Pcy mice = assay: Efficacy in the Pcy model of PKD; assay type: in vivo, mouse; conditions: for BUN (mean) / Cystic Index (mean) / KW/BW Ratio (mean): 25 mg/kg s.c. for oligonucleotides, sacrificed at 15 weeks of age
Description: (§1) Two experimental models of PKD were used to evaluate efficacy. Pkd2-KO mice spontaneously develop polycystic kidney disease, and were used as a model of ADPKD. See Patel et al., PNAS, 2013; 110 (26): 10765-10770. Pcy mice bearing a mutation in Nphp3 spontaneously develop polycystic kidney disease, with a slower progression of disease than that observed in the Pkd2-KO mice. The Pcy model is used as a model of nephronophthisis. See Happe and Peters, Nat. Rev. Nephrol., 2014; 10:587-601.
(§2) Cyst index is a histological measurement of cystic area relative to total kidney area. For this analysis, one kidney was perfused with cold PBS and 4% (wt/vol) paraformaldehyde and then harvested. Kidneys were fixed with 4% paraformaldehyde for 2 hours and then, embedded in paraffin for sectioning. Sagittal sections of kidneys were stained with hematoxylin and eosin (H&E). All image processing steps were automated and took place in freely available and open source software: An R1 script which used functions from the EBImage Bioconductor package2 and the ImageMagick3 suite of image processing tools. Kidney H&E images in Aperio SVS format were converted to TIFF images, and the first frame was retained for image analysis. First, the total kidney section area was calculated using image segmentation. Image segmentation was similarly used to find all internal structures including kidney cyst. A filter was applied to remove all objects less than a mean radius of three pixels. The cystic index is the image area associated with cysts divided by the total kidney areas. Cystic index was separately calculated for longitudinal and transverse kidney sections for each individual animal. Combined cystic index of individual animals were compared for each treatment groups.
RG4326 was tested in the Pcy mouse model. Wild-type mice were used as control group. From four weeks of age, Pcy mice were treated once per week via subcutaneous injection with RG4326 at a dose of 25 mg/kg, tool anti-miR-17 at a dose of 25 mg/kg, control oligonucleotide RG5124 at a dose of 25 mg/kg, or PBS. Each treatment group contained 15 male mice. Three treatments were administered on […] days of age, and weekly thereafter at 6, 7, 8, 9, 10, 11, 12, 13, and 14 weeks of age. Also tested was tolvaptan, a vasopressin V2-receptor antagonist (VRA) that is prescribed to some patients with polycystic kidney disease. Mice were sacrificed at 15 weeks of age. Body weight was recorded. One kidney was extracted and weighed and the other processed for histological analysis to calculate cyst index as described for the study in the Pkhd1/cre; Pkd2^F/F. Blood urea nitrogen (BUN) level and serum creatinine level were measured. Statistical significance was calculated by one-way ANOVA with Dunnett's multiple correction.

Pkd2-KO mice = assay: Efficacy in the Pkd2-KO model of PKD; assay type: in vivo, mouse; conditions: for BUN (mean) / Cystic Index (mean) / KW/BW Ratio (mean) / Serum Creatinine (mean): 20 mg/kg s.c. on days 10, 11, 12, 19 of age, sacrificed at 28 days
Description: as §1
RG4326 was tested in the Pkd2-KO mouse model of ADPKD. This model is also referred to as the PKD2-KO model. Wild-type mice were used as control mice. An oligonucleotide complementary to a miRNA unrelated to miR-17 was used as a treatment control for specificity (RG5124).
On each of days 10, 11 12, and 19 of age, sex-matched littermates of mice were administered a subcutaneous injection of RG4326 at a dose of 20 mg/kg (n=12), RG5124 at a dose of 20 mg/kg (n=12), tool anti-miR-17 at a dose of 20 mg/kg (n=12), or PBS (n=12). Mice were sacrificed at 28 days of age, and kidney weight, body weight, cyst index, serum creatinine level, and blood urea nitrogen (BUN) level were measured. BUN level is a marker of kidney function. A higher BUN level correlates with poorer kidney function, thus a reduction in BUN level is an indicator of reduced kidney injury and damage and improved function. Statistical significance was calculated by one-way ANOVA with Dunnett's multiple correction.
as §2

miR-17 = miR-17 luciferase reporter assay in HeLa cells; assay type: cell-based; conditions: for Luciferase Fold Derepression: mean
Experimental: In vitro potency was evaluated using a luciferase reporter assay. A luciferase reporter plasmid for miR-17, with […] in the 3′-UTR of the luciferase gene. Compounds of longer lengths were selected if their maximum inhibition was greater than that of the tool anti-miR-17 compound. As shorter compounds, such as 9-mers, are typically not maximally active in the same assay conditions used for longer compounds, shorter compounds were selected based on maximum inhibition relative to appropriate control compounds. In this way, compounds that are diverse in both length and chemical composition were included in further testing.
One assay employed was the luciferase assay. […] Accordingly, the luciferase assay transfection conditions were optimized for short anti-miR-17 compounds, so that the inhibitory activity of the compounds could be measured.
The luciferase reporter plasmid for miR-17 contained a fully complementary miR-17 binding site in the 3′-UTR of the luciferase gene. HeLa cells were transfected with the microRNA mimic and its cognate luciferase reporter, followed by transfection with anti-miR-17 at doses of […], 3, 10, 30, 100, and 300 nM. At the end of the 24-hour transfection period, luciferase activity was measured. As shown in Table 2-1, RG4047, while not as potent as RG4326, inhibited miR-17 activity in a dose dependent manner. SD indicates standard deviation.
Additional in vitro assays were conducted to further explore the potency of RG4326. A luciferase reporter assay was used to test the ability of RG4326 to inhibit the miR-17 family members miR-17, miR-20a, miR-93, and miR-106b. A luciferase reporter plasmid for each of miR-20a, miR-93, and miR-106b was constructed, with a fully complementary microRNA binding site in the 3′-UTR of the luciferase gene. HeLa cells were transfected with the microRNA mimic and its cognate luciferase reporter, followed by transfection with anti-miR-17 at a dose of 100 nm. […] As RG4326 is 100% complementary to the other miR-17 family members not tested, miR-20b and […], it is expected to inhibit these microRNAs as well.

[1] = 0.001 nM anti-miR-17, 24-hour transfection
[2] = 3 nM anti-miR-17, 24-hour transfection
[3] = 10 nM anti-miR-17, 24-hour transfection
[4] = 30 nM anti-miR-17, 24-hour transfection
[5] = 100 nM anti-miR-17, 24-hour transfection
[6] = 300 nM anti-miR-17, 24-hour transfection
[7] = 20 mg/kg, not statistically significant

## 5′-CTGCACTGTAAGCACTTTG-3′ (all phosphorothioate, sugars by position and methylation of C not given here; DNA, 2'-MOE and S-cEt sugars) [Tool anti-miR-17, reference compound]
Pcy mice
  efficacy on KW/BW ratio, BUN or cyst index (in words): did not result in statistically significant reductions
Pkd2-KO mice; 20 mg/kg
  effect on KW/BW ratio, BUN and cyst index (in words): no statistically significant changes were observed

## COC1C(OP(=O)(S)OC[C@H]2O[C@@H](n3cnc4c(N)ncnc43)C(F)C2OP(=O)(S)OC[C@H]2O[C@@H](n3ccc(N)nc3=O)C(F)C2OP(=O)(S)OC[C@H]2O[C@@H](n3ccc(=O)[nH]c3=O)C(F)C2OP(=O)(S)OC[C@H]2O[C@@H](n3ccc(=O)[nH]c3=O)C(OC)C2OP(=O)(S)OC[C@]23O[C@@H](n4ccc(=O)[nH]c4=O)C(O[C@H]2C)C3OP(=O)(S)OC[C@]23O[C@@H](n4cnc5c(=O)[nH]c(N)nc54)C(O[C@H]2C)C3O)[C@@H](COP(=O)(S)OC2C3O[C@@H](C)[C@]2(COP(=O)(S)OC2C4O[C@@H](C)[C@]2(CO)O[C@H]4n2cnc4c(N)ncnc42)O[C@H]3n2cnc3c(=O)[nH]c(N)nc32)O[C@H]1n1ccc(N)nc1=O (stereo in doubt) [RG4326, ASGSCMAFCFUFUMUSGS]
miR-17; [1]
  Luciferase Fold Derepression: 1
miR-17; [2]
  Luciferase Fold Derepression: 5.3
miR-17; [3]
  Luciferase Fold Derepression: 10.4
miR-17; [4]
  Luciferase Fold Derepression: 14.1
miR-17; [5]
  Luciferase Fold Derepression: 13.9
miR-17; [6]
  Luciferase Fold Derepression: 11.7
miR-17; anti-miR-17 at 100 nm
  Mean luciferase fold derepression, miR-17: 13.1
Pcy mice
  BUN (mean): 19.7
  Cystic Index (mean): 0.16
  KW/BW Ratio (mean): 18.1
Pcy mice; 25 mg/kg, p=0.0055
  mean KW/BW ratio lower relative to PBS-treated mice: 19%
Pcy mice; 25 mg/kg, p=0.0070
  BUN reduced relative to PBS-treated mice: 16%
Pcy mice; 25 mg/kg, p=0.016
  cyst index reduced compared to PBS: 34%
Pkd2-KO mice
  BUN (mean): 72.92 mg/dL
  Cystic Index (mean): 50.3
  KW/BW Ratio (mean): 40.98 mg/g
  Serum Creatinine (mean): 0.26 mg/dL
Pkd2-KO mice; [7]
  Mean serum creatinine levels lower than in PBS mice: 18%
  mean reduction in cyst index compared to PBS: 12%
Pkd2-KO mice; 20 mg/kg, p=0.0099
  mean KW/BW ratio lower than in PBS mice: 29%

## ASCSAMAFUFGFCMASCS [RG5124, reference compound]
miR-17; [1]
  Luciferase Fold Derepression: 1
miR-17; [2]
  Luciferase Fold Derepression: 1.2
miR-17; [3]
  Luciferase Fold Derepression: 2.6
miR-17; [4]
  Luciferase Fold Derepression: 1
miR-17; [5]
  Luciferase Fold Derepression: 0.7
miR-17; [6]
  Luciferase Fold Derepression: 1
Pcy mice
  efficacy on KW/BW ratio, BUN or cyst index (in words): did not result in statistically significant reductions
  BUN (mean): 21.2
  Cystic Index (mean): 0.23
  KW/BW Ratio (mean): 21.4
Pkd2-KO mice; 20 mg/kg
  effect on KW/BW ratio, BUN and cyst index (in words): did not reduce kidney weight to body weight ratio, cyst index, or BUN
Pkd2-KO mice
  BUN (mean): 86.67 mg/dL
  Cystic Index (mean): 56.67
  KW/BW Ratio (mean): 55.35 mg/g
  Serum Creatinine (mean): 0.31 mg/dL
